# System: plants
# Assay: Test D pre-emergence, other plants of Tables D1 and D3
# Assay type: in vivo
# Conditions: pre-emergence, 100=total damage, 0=no damage
# Protocol: A formulation containing 50 g/L of the test chemical was prepared by dissolving the active ingredient in a mixture of organic solvents and emulsifier, details of which are provided in the table. This formulation was then mixed with a small, variable amount of acetone to aid dissolution, before addition of a 0.2% v/v aqueous solution of an adjuvant, as the aqueous diluent, to form an aqueous spray solution which contains a predetermined concentration of the active ingredient.
# This aqueous spray solution was then sprayed onto plants including maize and wheat that had been seed treated with a herbicide safener, after one day's cultivation (for pre-emergence) or after about 12 days' cultivation (for post-emergence). The plants were grown from seeds sown in standard soil, placed in a glasshouse under controlled conditions (at 24/18° C. or 20/16° C., day/night; 16 h light; 65% humidity). After spray application the plants were then grown in a glasshouse under the same conditions and watered twice daily. After 15 d for post-emergence and 20 DAA for pre-emergence the test was evaluated (100=total damage to plant; 0=no damage to plant).
smiles,measurement,setting,value
CN1CC(c2cc(C(F)(F)F)n(C)n2)C(C(=O)Nc2ccc(F)cc2F)C1=O (racemic) [Compound 6],"damage to plant, ALOMY","rate 15, 20 DAA",0
same,"damage to plant, AVEFA","rate 15, 20 DAA",0
same,"damage to plant, BEAVA","rate 15, 20 DAA",0
same,"damage to plant, BROTE","rate 15, 20 DAA",0
same,"damage to plant, BRSNN","rate 15, 20 DAA",0
same,"damage to plant, CHEAL","rate 15, 20 DAA",0
same,"damage to plant, GALAP","rate 15, 20 DAA",0
same,"damage to plant, HORVW","rate 15, 20 DAA",0
same,"damage to plant, KCHSC","rate 15, 20 DAA",0
same,"damage to plant, LOLPE","rate 15, 20 DAA",0
same,"damage to plant, POAAN","rate 15, 20 DAA",0
same,"damage to plant, POLCO","rate 15, 20 DAA",0
same,"damage to plant, SINAR","rate 15, 20 DAA",0
same,"damage to plant, STEME","rate 15, 20 DAA",0
same,"damage to plant, VERPE","rate 15, 20 DAA",0
same,"damage to plant, ALOMY","rate 30, 20 DAA",0
same,"damage to plant, AVEFA","rate 30, 20 DAA",0
same,"damage to plant, BEAVA","rate 30, 20 DAA",0
same,"damage to plant, BROTE","rate 30, 20 DAA",0
same,"damage to plant, BRSNN","rate 30, 20 DAA",0
same,"damage to plant, CHEAL","rate 30, 20 DAA",0
same,"damage to plant, GALAP","rate 30, 20 DAA",0
same,"damage to plant, HORVW","rate 30, 20 DAA",0
same,"damage to plant, KCHSC","rate 30, 20 DAA",0
same,"damage to plant, LOLPE","rate 30, 20 DAA",0
same,"damage to plant, POAAN","rate 30, 20 DAA",0
same,"damage to plant, POLCO","rate 30, 20 DAA",0
same,"damage to plant, SINAR","rate 30, 20 DAA",0
same,"damage to plant, STEME","rate 30, 20 DAA",0
same,"damage to plant, VERPE","rate 30, 20 DAA",0
same,"damage to plant, ALOMY","rate 60, 20 DAA",0
same,"damage to plant, AVEFA","rate 60, 20 DAA",0
same,"damage to plant, BEAVA","rate 60, 20 DAA",0
same,"damage to plant, BROTE","rate 60, 20 DAA",0
same,"damage to plant, BRSNN","rate 60, 20 DAA",0
same,"damage to plant, CHEAL","rate 60, 20 DAA",0
same,"damage to plant, GALAP","rate 60, 20 DAA",0
same,"damage to plant, HORVW","rate 60, 20 DAA",0
same,"damage to plant, KCHSC","rate 60, 20 DAA",0
same,"damage to plant, LOLPE","rate 60, 20 DAA",0
same,"damage to plant, POAAN","rate 60, 20 DAA",0
same,"damage to plant, POLCO","rate 60, 20 DAA",0
same,"damage to plant, SINAR","rate 60, 20 DAA",0
same,"damage to plant, STEME","rate 60, 20 DAA",0
same,"damage to plant, VERPE","rate 60, 20 DAA",0
same,"damage to plant, ALOMY","rate 130, 20 DAA",0
same,"damage to plant, AVEFA","rate 130, 20 DAA",0
same,"damage to plant, BEAVA","rate 130, 20 DAA",0
same,"damage to plant, BROTE","rate 130, 20 DAA",0
same,"damage to plant, BRSNN","rate 130, 20 DAA",0
same,"damage to plant, CHEAL","rate 130, 20 DAA",0
same,"damage to plant, GALAP","rate 130, 20 DAA",0
same,"damage to plant, HORVW","rate 130, 20 DAA",0
same,"damage to plant, KCHSC","rate 130, 20 DAA",0
same,"damage to plant, LOLPE","rate 130, 20 DAA",0
same,"damage to plant, POAAN","rate 130, 20 DAA",10
same,"damage to plant, POLCO","rate 130, 20 DAA",0
same,"damage to plant, SINAR","rate 130, 20 DAA",0
same,"damage to plant, STEME","rate 130, 20 DAA",0
same,"damage to plant, VERPE","rate 130, 20 DAA",0
same,"damage to plant, ALOMY","rate 250, 20 DAA",0
same,"damage to plant, AVEFA","rate 250, 20 DAA",0
same,"damage to plant, BEAVA","rate 250, 20 DAA",0
same,"damage to plant, BROTE","rate 250, 20 DAA",0
same,"damage to plant, BRSNN","rate 250, 20 DAA",0
same,"damage to plant, CHEAL","rate 250, 20 DAA",10
same,"damage to plant, GALAP","rate 250, 20 DAA",10
same,"damage to plant, HORVW","rate 250, 20 DAA",10
same,"damage to plant, KCHSC","rate 250, 20 DAA",0
same,"damage to plant, LOLPE","rate 250, 20 DAA",20
same,"damage to plant, POAAN","rate 250, 20 DAA",20
same,"damage to plant, POLCO","rate 250, 20 DAA",0
same,"damage to plant, SINAR","rate 250, 20 DAA",0
same,"damage to plant, STEME","rate 250, 20 DAA",10
same,"damage to plant, VERPE","rate 250, 20 DAA",10
same,"damage to plant, ALOMY","rate 500, 20 DAA",40
same,"damage to plant, AVEFA","rate 500, 20 DAA",20
same,"damage to plant, BEAVA","rate 500, 20 DAA",0
same,"damage to plant, BROTE","rate 500, 20 DAA",0
same,"damage to plant, BRSNN","rate 500, 20 DAA",0
same,"damage to plant, CHEAL","rate 500, 20 DAA",20
same,"damage to plant, GALAP","rate 500, 20 DAA",20
same,"damage to plant, HORVW","rate 500, 20 DAA",20
same,"damage to plant, KCHSC","rate 500, 20 DAA",10
same,"damage to plant, LOLPE","rate 500, 20 DAA",30
same,"damage to plant, POAAN","rate 500, 20 DAA",70
same,"damage to plant, POLCO","rate 500, 20 DAA",0
same,"damage to plant, SINAR","rate 500, 20 DAA",10
same,"damage to plant, STEME","rate 500, 20 DAA",10
same,"damage to plant, VERPE","rate 500, 20 DAA",20
